We go through three compounds from PubChem BioAssay (NCI).

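Following 48 hours of exposure in 96-well plates, responses at five concentrations were used to interpolate endpoints linearly. TGI denotes the concentration required for complete inhibition of growth.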

Among the test systems are MDA-N; RPMI-8226 leukemia; NCI-H226 lung; HL-60(TB) leukemia; SF-539 CNS; TK-10 renal; KM12 colon; OVCAR-3 ovarian; HT29 colon; UACC-257 melanoma; COLO 205 colon; HCT-15 colon; NCI/ADR-RES ovarian; CAKI-1 renal; HCT-116 colon; BT-549 breast; NCI-H460 lung; MDA-MB-435; DU-145 prostate; SK-MEL-2 melanoma.
Test in all cases: DTP human tumour cell line panel, 48 h

For `CCOC(=O)C1=CN/C(=C(/C)C(=O)OC)SC1C(=O)OCC` (stereo not given), the TGI with MDA-N, in the experiment on RPMI-8226 leukemia, in the experiment on NCI-H226 lung, in the experiment on HL-60(TB) leukemia, in the experiment with SF-539 CNS and with TK-10 renal was > 100 µM each time. In addition, the TGI with KM12 colon, with OVCAR-3 ovarian, with HT29 colon, in the experiment on UACC-257 melanoma, in the experiment with COLO 205 colon and with HCT-15 colon was > 100 µM each time. Further, the TGI in the experiment with NCI/ADR-RES ovarian, in the experiment with CAKI-1 renal, in the experiment on HCT-116 colon, in the experiment on BT-549 breast, in the experiment with NCI-H460 lung and in the experiment on MDA-MB-435 was > 100 µM in each case. For the same compound, the TGI in the experiment with DU-145 prostate and in the experiment on SK-MEL-2 melanoma was > 100 µM throughout.

As to `COc1cc(C2SCC(=O)N2c2ccccc2Cl)cc(OC)c1OC` (stereo not given), the TGI in the experiment with MDA-N is 44.8 µM; with RPMI-8226 leukemia, > 100 µM; in the experiment with NCI-H226 lung, > 100 µM; in the experiment on HL-60(TB) leukemia, > 100 µM; with SF-539 CNS it was > 100 µM; in the experiment on TK-10 renal it was > 100 µM. For the same compound, the TGI in the experiment with KM12 colon, in the experiment with OVCAR-3 ovarian, in the experiment with HT29 colon, in the experiment on UACC-257 melanoma, in the experiment with COLO 205 colon and with HCT-15 colon was > 100 µM each time. Also, the TGI is > 100 µM with NCI/ADR-RES ovarian; > 100 µM in the experiment with CAKI-1 renal; > 100 µM in the experiment on HCT-116 colon; > 100 µM with BT-549 breast; > 100 µM in the experiment on NCI-H460 lung; 64.8 µM with MDA-MB-435. Also, the TGI in the experiment with DU-145 prostate and with SK-MEL-2 melanoma was > 100 µM each time.

Regarding `O=C1NC(=O)C(Cc2ccccc2)(c2cccnc2)N1` (stereo not given), the TGI in the experiment on MDA-N, in the experiment on RPMI-8226 leukemia, with NCI-H226 lung, in the experiment on HL-60(TB) leukemia, in the experiment on SF-539 CNS and with TK-10 renal was > 100 µM throughout. Also, the TGI with KM12 colon, in the experiment on OVCAR-3 ovarian, in the experiment with HT29 colon, with UACC-257 melanoma, in the experiment with COLO 205 colon and in the experiment on HCT-15 colon was > 100 µM each time. Besides, the TGI with NCI/ADR-RES ovarian, with CAKI-1 renal, with HCT-116 colon, in the experiment on BT-549 breast, with NCI-H460 lung and in the experiment on MDA-MB-435 was > 100 µM in each case. The TGI in the experiment on DU-145 prostate and in the experiment with SK-MEL-2 melanoma was > 100 µM throughout.
